Test results taken from patent US7932279B2 (ArQule, Inc., priority 2007, dated 2011).

Experiments:
SK-BR-3 = assay: MTS assay (cell viability); type: cell-based; conditions: Homo sapiens; SK-BR-3 cells, 72 hours with compound, 50% reduction in number of viable cells; read-out: IC50'S(SK-BR-3)
Procedure: The anti-proliferative effects of biochemically active compounds were measured utilizing the MTS assay. The generalized procedure is describes as follows:
The cells are then trypsinized and re-plated in 96 well sterile cell culture plates in 130 μl/well growth media at a density that allows confluency of approximately 50% after 72 hours of growth. These starting densities vary across cell lines based on individual doubling times. The day following plating, the cell was treated with an appropriate concentration of compound diluted in DMSO. Cell plates were allowed to grow undisturbed at 37° C., 5% CO2 for 72 h. After 72 hours, 30 μl of a solution of 0.046 mg/ml Phemazine methosulfate (PMS) (Fluka product 68600) and 1.9 mg/ml MTS reagent ([3-(4,5-dimethylthiazol-2-yl)-5-(3 carboxymethoxyphenyl)-2-(4-sulfophenyl)-2H-tetrazolium, inner salt (Promega product G1111) is added directly to the well. Plate is re-incubated at 37° C., 5% CO2 for 4 hr. Plates were then read on the Perkin Elmer Envision to determine absorbance at 490 nm.
Cell viability was determined by measuring the activity of dehydrogenase enzymes in metabolically active cells using a tetrazolium compound, MTS. The assay was performed as described in Promega Technical Bulletin No. 169 (CellTiter 96 Aqueous Non-Radioactive Cell Proliferation Assay). Ten human cancer cell lines were assayed (see, e.g. Table 1). Cells were maintained at 37° C. and 5% CO2 in DMEM media (4.5 g/L glucose) supplemented with 10% heat-inactivated FBS, 10 mM L-glutamine, and 10 mM Hepes pH 7.5. Briefly, cells were seeded in 96-well plates as set forth in Table 1 and incubated for 16-24 hours. Candidate compounds were serially diluted in DMSO, further diluted in cell culture media, and then added to cells (final DMSO concentration of 0.33%). Cells were incubated in the presence of candidate compound for 72 hours. MTS stock solution (MTS 2 gm/L, PMS […] in PBS) was added to the cells (final concentration MTS […] and PMS 7.67 mg/L) and incubated for 4 hours. SDS was added to a final concentration of 1.4% and absorbance at 490 nm was measured within two hours using a plate reader. The IC50 was defined as the concentration of compound that results in a 50% reduction in the number of viable cells as compared to control wells treated with DMSO only (0.33%) and was calculated using non-linear regression analysis. IC50 values were given in Table 3 for the compounds listed.

HSP90α = molecular target: T1, HSP90α (Homo sapiens, UniProt P07900); assay: HSP90 binding assay (fluorescent ELISA, competition with biotinylated Geldanamycin); conditions: reported as range of IC50's
T1 construct: purchased Stressgen Lot B506492
Procedure: The biochemical assay is described as follows.
Purified HSP90α […] was purchased from Stressgen Lot B506492. Single use aliquots of the 1.15 mg/ml stock were prepared and stored at −80° C. to avoid multiple freeze-thaw cycles.
A Nunc Maxisorb plate was coated overnight at 4° C. with 200 ng of HSP90/well dissolved in DPBS. The following day the plates were washed with TBST and blocked for 2 h at room temperature with blocking buffer (20 mM HEPES pH 7.3, 1 mM EDTA, 5 mM MgCl2, 100 mM KCl, 5% BSA). Blocking buffer was removed by washing plates with TBST, and test compounds dissolved in assay buffer (20 mM HEPES pH 7.3, 1 mM EDTA, 5 mM MgCl2, 100 mM KCl, 1% BSA) were added to plate. […] The reaction is incubated for 60 minutes at room temperature. […] Competitive inhibitory compounds will block this interaction from occurring.
The reactions were stopped by washing the plate with TBST. The binding of the bio-GM is detected by the addition of an Alkaline Phosphatase tagged Streptavidin molecule. A TBST wash eliminates any unbound detection agent, and the Alkaline Phosphate substrate Attophos is introduced. This substrate generates a fluorescent signal at […] when excited at […]. These plates can be monitored on either a Victor 5 or Perkin Elmer Envision multilabel reader.

[1] = aqueous solution; cited from earlier work
[2] = clinical trials; cited from earlier work

IC50 (HSP90α) [µM]	Compound	further results
10 to 50	COCCCn1nnnc1-c1cc(-c2cccc(C(F)(F)F)c2)c(O)cc1O [Compound 7, 5-[1-(3-methoxy-propyl)-1H-tetrazol-5-yl]-3′-trifluoromethyl-biphenyl-2,4-diol]	IC50 (SK-BR-3): 15.3 µM; melting point: 144 to 182 °C
1 to 10	COCCCn1nnnc1-c1cc(-c2cc(C(C)C)ccc2OC)c(O)cc1O [Compound 16, 5′-isopropyl-2′-methoxy-5-[1-(3-methoxy-propyl)-1H-tetrazol-5-yl]-biphenyl-2,4-diol]	melting point: 174 to 176 °C
–	C=CCNC1=C2C[C@@H](C)C[C@H](OC)[C@H](O)[C@@H](C)/C=C(\C)[C@H](OC(N)=O)[C@@H](OC)/C=C\C=C(/C)C(=O)NC(=CC1=O)C2=O [Compound 17-AAG, 17-Allylamino-17-demethoxygeldanamycin]	solubility [1]: low solubility
10 to 50	COc1ccc(C(C)C)cc1-c1cc(-c2nnnn2CCc2ccccc2)c(O)cc1O [Compound 26, 5′-isopropyl-2′-methoxy-5-(1-phenethyl-1H-tetrazol-5-yl)-biphenyl-2,4-diol]	melting point: 206 to 209 °C
> 50	CCS(=O)(=O)N1CCN(C(=O)c2cccc(-c3cc(-c4nnnn4CCCOC)c(O)cc3O)c2)CC1 [Compound 66, {2′,4′-Dihydroxy-5′-[1-(3-methoxy-propyl)-1H-tetrazol-5-yl]-biphenyl-3-yl}-(4-ethanesulfonyl-piperazin-1-yl)-methanone]	–
> 50	COCCCn1nnnc1-c1cc(-c2cccc(C(=O)NCCCN3CCOCC3)c2)c(O)cc1O [Compound 67, 2′,4′-Dihydroxy-5′-[1-(3-methoxy-propyl)-1H-tetrazol-5-yl]-biphenyl-3-carboxylic Acid (3-morpholin-4-yl-propyl)-amide]	–
> 50	COCCCn1nnnc1-c1cc(-c2cccc(C(=O)NCCC3CCCN3C)c2)c(O)cc1O (centres unmarked) [Compound 68, 2′,4′-Dihydroxy-5′-[1-(3-methoxypropyl)-1H-tetrazol-5-yl]-biphenyl-3-carboxylic acid [2-(1-methyl-pyrrolidin-2-yl)-ethyl]-amide]	–
> 50	COCCCn1nnnc1-c1cc(-c2cccc(C(=O)N3CCN(CC4CCN(C)CC4)CC3)c2)c(O)cc1O [Compound 69]	–
> 50	COCCCn1nnnc1-c1cc(-c2cccc(C(=O)NC(C)CN(C)C)c2)c(O)cc1O (centres unmarked) [Compound 70, 2′,4′-Dihydroxy-5′-[1-(3-methoxy-propyl)-1H-tetrazol-5-yl]-biphenyl-3-carboxylic acid (2-dimethylamino-1-methyl-ethyl)-amide]	–
> 50	CCC(C)CN(CCO)C(=O)c1cccc(-c2cc(-c3nnnn3CCCOC)c(O)cc2O)c1 (centres unmarked) [Compound 71]	–
> 50	COCCCn1nnnc1-c1cc(-c2cccc(C(=O)N3CCN(CCN4CCCC4)CC3)c2)c(O)cc1O [Compound 72, {2′,4′-Dihydroxy-5′-[1-(3-methoxy-propyl)-1H-tetrazol-5-yl]-biphenyl-3-yl}-[4-(2-pyrrolidin-1-yl-ethyl)-piperazin-1-yl]-methanone]	–
> 50	COCCCn1nnnc1-c1cc(-c2ccc(OC(F)(F)F)cc2)c(O)cc1O [Compound 73]	–
> 50	COCCCn1nnnc1-c1cc(-c2ccc(Oc3ccccc3)cc2)c(O)cc1O [Compound 74, 5-[1-(3-Methoxy-propyl)-1H-tetrazol-5-yl]-4′-phenoxy-biphenyl-2,4-diol]	–
> 50	CCc1ccccc1-c1cc(-c2nnnn2CCCOC)c(O)cc1O [Compound 75, 2′-Ethyl-5-[1-(3-methoxy-propyl)-1H-tetrazol-5-yl]-biphenyl-2,4-diol]	–
10 to 50	COCCCn1nnnc1-c1cc(-c2cccc(C(C)C)c2)c(O)cc1O [Compound 76, 3′-Isopropyl-5-[1-(3-methoxy-propyl)-1H-tetrazol-5-yl]-biphenyl-2,4-diol]	–
10 to 50	CCOc1cccc(-c2cc(-c3nnnn3CCCOC)c(O)cc2O)c1 [Compound 77, 3′-Ethoxy-5-[1-(3-methoxy-propyl)-1H-tetrazol-5-yl]-biphenyl-2,4-diol]	–
> 50	COCCCn1nnnc1-c1cc(-c2ccc(F)cc2F)c(O)cc1O [Compound 84]	–
–	COc1ccc(C(C)C)cc1-c1cc(-c2nnnn2CCCOC(C)C)c(O)cc1O [Compound 99, 5-[1-(3-Isopropoxy-propyl)-1H-tetrazol-5-yl]-5′-isopropyl-2′-methoxy-biphenyl-2,4-diol]	IC50 (SK-BR-3): 13.5 µM
–	COc1ccc(C(C)C)cc1-c1cc(-c2nnnn2CCCc2ccccc2)c(O)cc1O [Compound 100]	IC50 (SK-BR-3): 3.22 µM
–	COc1ccc(C(C)C)cc1-c1cc(-c2nnnn2C2CCC2)c(O)cc1O [Compound 108, 5-(1-Cyclobutyl-1H-tetrazol-5-yl)-5′-isopropyl-2′-methoxy-biphenyl-2,4-diol]	IC50 (SK-BR-3): 13.7 µM
–	COc1ccc(C(C)C)cc1-c1cc(-c2nnnn2C(C)C)c(O)cc1O [Compound 110]	IC50 (SK-BR-3): 1.58 µM
< 1	COc1ccc(C(C)C)cc1-c1cc(-c2nnnn2-c2ccccc2)c(O)cc1O [Compound 120]	–
–	CO[C@H]1/C=C\C=C(/C)C(=O)NC2=CC(=O)C(NCCN(C)C)=C(C[C@@H](C)C[C@H](OC)[C@H](O)[C@@H](C)/C=C(\C)[C@@H]1OC(N)=O)C2=O [DMAG, 17-Dimethylaminoethylamino-17-demethoxygeldanamycin]	solubility [1]: low solubility
–	COC1=C2C[C@@H](C)C[C@H](OC)[C@H](O)[C@@H](C)/C=C(\C)[C@H](OC(N)=O)[C@@H](OC)/C=C\C=C(/C)C(=O)NC(=CC1=O)C2=O [geldanamycin]	hepatotoxicity [2]: hepatotoxicity proved problematic; solubility [1]: poorly soluble
